Measurements: patent US20230192705A1, “SHP2 INHIBITORS, COMPOSITIONS AND USES THEREOF” (Betta Pharmaceuticals Co., Ltd, priority 2020, published 2023)

Target: T1, SHP2 (Homo sapiens, UniProt Q06124)
T1 sequence (Q06124 1-593): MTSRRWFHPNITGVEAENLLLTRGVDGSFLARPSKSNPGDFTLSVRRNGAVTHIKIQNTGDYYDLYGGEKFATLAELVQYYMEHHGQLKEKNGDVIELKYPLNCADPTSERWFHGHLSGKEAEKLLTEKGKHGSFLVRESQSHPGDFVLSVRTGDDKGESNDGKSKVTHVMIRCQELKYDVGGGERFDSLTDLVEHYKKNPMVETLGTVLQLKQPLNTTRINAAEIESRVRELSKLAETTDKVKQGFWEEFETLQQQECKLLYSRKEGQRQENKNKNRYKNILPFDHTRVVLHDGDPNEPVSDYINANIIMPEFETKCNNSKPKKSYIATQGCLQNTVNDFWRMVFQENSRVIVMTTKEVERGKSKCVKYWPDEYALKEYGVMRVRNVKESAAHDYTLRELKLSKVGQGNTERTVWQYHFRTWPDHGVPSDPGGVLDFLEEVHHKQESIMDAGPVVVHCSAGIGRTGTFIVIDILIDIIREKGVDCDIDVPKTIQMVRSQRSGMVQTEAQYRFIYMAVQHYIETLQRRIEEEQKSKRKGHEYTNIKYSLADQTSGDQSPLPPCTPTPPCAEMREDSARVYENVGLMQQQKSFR
Assay: SHP2 allosteric inhibitor enzyme activity assay (DiFMUP fluorescence)
Format: biochemical
Conditions: class symbols
Source text: SHP2 is activated by the binding of a bis-tyrosyl-phosphorylated peptide to its Src homologous 2 (SH2) domain. This subsequent activation step leads to the release of the automatic inhibition interface of SHP2, which in turn activates the SHP2 protein tyrosine phosphatase (PTP) and can be used for substrate recognition and reaction catalysis. The catalytic activity of SHP2 was monitored using the alternative DiFMUP in a rapid fluorescence assay format.
Assay procedures are as follows:
(1) Compound Formulation:
The compound of the present invention (10 mM stock solution) was diluted to a suitable multiple with 100% DMSO and assay buffer, and the final test concentration of the compound of the present invention was 1 μM, 0.333 μM, 0.111 μM, 0.0370 μM, 0.0124 μM, 0.00412 μM, 0.00137 μM, 0.00046 μM, 0.00015 μM, 0.00 μM;
(2) Preparation of Enzyme Reaction Working Fluid:
SHP2 enzyme activity was performed using a final reaction volume of 50 μL and the following assay buffer conditions in 96-well black polystyrene plates (flat bottom, low flange, non-bonding surface) (Perki Elmer, Cat #6005270) at room temperature: 60 mM HEPES, 75 mM NaCl, 75 mM KCl, 0.05% BRIJ-35, 1 mM EDTA, 5 mM DTT.
(3) Enzyme Catalytic Reaction and Data Monitoring:
Compounds of the present invention were added to the corresponding 96-well plates, and no compound and enzyme were provided as blank test wells. SHP2 Activating Peptide (IRS1_pY1172 (dPEG8)pY1222) was placed on ice for melting, and 0.5 μM was added per well, then 0.2 ng SHP2 protein samples were added to corresponding well plates, and incubated at room temperature for 1 hour. Substrate DiFMUP (Invitrogen, Cat #D6567) was added to the reaction at room temperature for 1 hour. Fluorescence signals were monitored using an enzyme reader (Envision, Perki Elmer) using excitation wavelengths and emission wavelengths of 340 nm and 450 nm, respectively.
Inhibition %=[1−(Conversion_sample−Conversion_min)/(Conversion_max−Conversion_min)]*100% Calculation formula: […]
where: Conversion_sample is the mean reading of the sample wells; Conversion_min is the mean reading of blank control wells, representing the reading of the wells without enzyme; Conversion_max is the mean of positive control wells, representing the reading of the wells without inhibitor.
The dose-response curve is fitted with GraphPad Prism software and IC50 was calculated by the “log[inhibitor] vs. response-variable slope” program.

Row | SMILES | IC50 [µM]
1 | CN1CC=C(c2n[nH]c3nc(N4CCC5(CC4)Cc4ccccc4[C@H]5N)[nH]c(=O)c23)c2ccccc21 [Compound 178, (S)-6-(1-amino-1,3-dihydrospiro[indene-2,4′-piperidin]-1′-yl)-3-(1-methyl-1,2-dihydroquinolin-4-yl)-1,5-dihydro-4H-pyrazolo[3,4-d]pyrimidin-4-one, reference compound] | ≤ 0.02
2 | N[C@@H]1c2ccccc2CC12CCN(c1cnc3c(C4(c5ccccc5)CC4)n[nH]c3n1)CC2 [Example 2, (S)-1′-(3-(1-phenylcyclopropyl)-1H-pyrazolo[3,4-b]pyrazin-6-yl)-1,3-dihydrospiro[indene-2,4′-piperidin]-1-amine] | ≤ 0.02
3 | N[C@@H]1c2ccccc2CC12CCN(c1nc3[nH]nc(C4(c5ccccc5)CC4)c3c3nncn13)CC2 [Example 3] | ≤ 0.02
4 | CC1(C)CC1(c1ccccc1)c1n[nH]c2nc(N3CCC4(CC3)Cc3ccccc3[C@H]4N)[nH]c(=O)c12 (stereo partly drawn) [Example 5, 6-((S)-1-amino-1,3-dihydrospiro[indene-2,4′-piperidin]-1′-yl)-3-(2,2-dimethyl-1-phenylcyclopropyl)-1,5-dihydro-4H-pyrazolo[3,4-d]pyrimidin-4-one] | > 0.06
5 | N[C@@H]1c2ccccc2CC12CCN(c1nc3[nH]nc(C4(c5ccccc5)CC4(Cl)Cl)c3c(=O)[nH]1)CC2 (stereo partly drawn) [Example 7, 6-((S)-1-amino-1,3-dihydrospiro[indene-2,4′-piperidin]-1′-yl)-3-(2,2-dichloro-1-phenylcyclopropyl)-1,5-dihydro-4H-pyrazolo[3,4-d]pyrimidin-4-one] | > 0.06
6 | N[C@@H]1c2ccccc2CC12CCN(c1nc3[nH]nc(C4(c5ccccc5Cl)CC4)c3c(=O)[nH]1)CC2 [Example 12, (S)-6-(1-amino-1,3-dihydrospiro[indene-2,4′-piperidin]-1′-yl)-3-(1-(2-chlorophenyl)cyclopropyl)-1,5-dihydro-4H-pyrazolo[3,4-d]pyrimidin-4-one] | ≤ 0.02
7 | N[C@@H]1c2ccccc2CC12CCN(c1nc3[nH]nc(C4(c5ccc6ncccc6c5)CC4)c3c(=O)[nH]1)CC2 [Example 14, (S)-6-(1-amino-1,3-dihydrospiro[indene-2,4′-piperidin]-1′-yl)-3-(1-(quinolin-6-yl)cyclopropyl)-1,5-dihydro-4H-pyrazolo[3,4-d]pyrimidin-4-one] | ≤ 0.02
8 | N[C@@H]1c2ccccc2CC12CCN(c1nc3[nH]nc(C4(c5ccccc5C(F)(F)F)CC4)c3c(=O)[nH]1)CC2 [Example 15, (S)-6-(1-amino-1,3-dihydrospiro[indene-2,4′-piperidin]-1′-yl)-3-(1-(2-(trifluoromethyl)phenyl)cyclo-propyl)-1,5-dihydro-4H-pyrazolo[3,4-d]pyrimidin-4-one] | ≤ 0.02
9 | N[C@@H]1c2ccccc2CC12CCN(c1nc3[nH]nc(C4(c5ccccc5OC(F)(F)F)CC4)c3c(=O)[nH]1)CC2 [Example 16, (S)-6-(1-amino-1,3-dihydrospiro[indene-2,4′-piperidin]-1′-yl)-3-(1-(2-(trifluoromethoxy)phenyl)cyclo-propyl)-1,5-dihydro-4H-pyrazolo[3,4-d]pyrimidin-4-one] | ≤ 0.02
10 | N[C@@H]1c2ccccc2CC12CCN(c1nc3[nH]nc(C4(c5ccc(F)c(F)c5)CC4)c3c(=O)[nH]1)CC2 [Example 20, (S)-6-(1-amino-1,3-dihydrospiro[indene-2,4′-piperidin]-1′-yl)-3-(1-(3,4-difluorophenyl)cyclopropyl)-1,5-dihydro-4H-pyrazolo[3,4-d]pyrimidin-4-one] | ≤ 0.02
11 | Nc1ccccc1C1(c2n[nH]c3nc(N4CCC5(CC4)Cc4ccccc4[C@H]5N)[nH]c(=O)c23)CC1 [Example 22, (S)-6-(1-amino-1,3-dihydrospiro[indene-2,4′-piperidin]-1′-yl)-3-(1-(2-aminophenyl)cyclopropyl)-1,5-dihydro-4H-pyrazolo[3,4-d]pyrimidin-4-one] | ≤ 0.02
12 | N[C@@H]1c2ccccc2CC12CCN(c1nc3[nH]nc(C4(c5ccccn5)CC4)c3c(=O)[nH]1)CC2 [Example 23, (S)-6-(1-amino-1,3-dihydrospiro[indene-2,4′-piperidin]-1′-yl)-3-(1-(pyridin-2-yl)cyclopropyl)-1,5-dihydro-4H-pyrazolo[3,4-d]pyrimidin-4-one] | ≤ 0.02
13 | N[C@@H]1c2ccccc2CC12CCN(c1nc3[nH]nc(C4(c5ccnc(Cl)c5)CC4)c3c(=O)[nH]1)CC2 [Example 25, (S)-6-(1-amino-1,3-dihydrospiro[indene-2,4′-piperidin]-1′-yl)-3-(1-(2-chloropyridin-4-yl)cyclopropyl)-1,5-dihydro-4H-pyrazolo[3,4-d]pyrimidin-4-one] | ≤ 0.02
14 | N#Cc1cc(C2(c3n[nH]c4nc(N5CCC6(CC5)Cc5ccccc5[C@H]6N)[nH]c(=O)c34)CC2)ccn1 [Example 26, (S)-4-(1-(6-(1-amino-1,3-dihydrospiro[indene-2,4′-piperidin]-1′-yl)-4-oxo-4,5-dihydro-1H-pyrazolo[3,4-d]pyrimidin-3-yl)cyclopropyl)picolinonitrile] | ≤ 0.02
15 | N[C@@H]1c2ccccc2CC12CCN(c1nc3[nH]nc(C4(c5ccnc(C(F)(F)F)c5)CC4)c3c(=O)[nH]1)CC2 [Example 27, (S)-6-(1-amino-1,3-dihydrospiro[indene-2,4′-piperidin]-1′-yl)-3-(1-(2-(trifluoromethyl)pyridin-4-yl)cyclopropyl)-1,5-dihydro-4H-pyrazolo[3,4-d]pyrimidin-4-one] | ≤ 0.02
16 | COc1cc(C2(c3n[nH]c4nc(N5CCC6(CC5)Cc5ccccc5[C@H]6N)[nH]c(=O)c34)CC2)ccn1 [Example 28, (S)-6-(1-amino-1,3-dihydrospiro[indene-2,4′-piperidin]-1′-yl)-3-(1-(2-methoxypyridin-4-yl)cyclopropyl)-1,5-dihydro-4H-pyrazolo[3,4-d]pyrimidin-4-one] | ≤ 0.02
17 | N[C@@H]1c2ccccc2CC12CCN(c1nc3[nH]nc(C4(c5ccnc(NC6CC6)c5)CC4)c3c(=O)[nH]1)CC2 [Example 29, (S)-6-(1-amino-1,3-dihydrospiro[indene-2,4′-piperidin]-1′-yl)-3-(1-(2-(cyclopropylamino)pyridin-4-yl)cyclopropyl)-1,5-dihydro-4H-pyrazolo[3,4-d]pyrimidin-4-one] | ≤ 0.02
18 | N[C@@H]1c2ccccc2CC12CCN(c1nc3[nH]nc(C4(c5ccnc(OC6CC6)c5)CC4)c3c(=O)[nH]1)CC2 [Example 30, (S)-6-(1-amino-1,3-dihydrospiro[indene-2,4′-piperidin]-1′-yl)-3-(1-(2-cyclopropoxypyridin-4-yl)cyclopropyl)-1,5-dihydro-4H-pyrazolo[3,4-d]pyrimidin-4-one] | ≤ 0.02
19 | N[C@@H]1c2ccccc2CC12CCN(c1nc3[nH]nc(C4(c5ccnc(N6CCOCC6)c5)CC4)c3c(=O)[nH]1)CC2 [Example 31, (S)-6-(1-amino-1,3-dihydrospiro[indene-2,4′-piperidin]-1′-yl)-3-(1-(2-morpholinopyridin-4-yl)cyclopropyl)-1,5-dihydro-4H-pyrazolo[3,4-d]pyrimidin-4-one] | 0.02 to 0.06
20 | N[C@@H]1c2ccccc2CC12CCN(c1nc3[nH]nc(C4(c5ccc6nccnc6c5)CC4)c3c(=O)[nH]1)CC2 [Example 32, (S)-6-(1-amino-1,3-dihydrospiro[indene-2,4′-piperidin]-1′-yl)-3-(1-(quinoxalin-6-yl)cyclopropyl)-1,5-diliydro-4H-pyrazolo[3,4-d]pyrimidin-4-one] | 0.02 to 0.06
21 | N#Cc1cccc(C2(c3n[nH]c4nc(N5CCC6(CC5)Cc5ccccc5[C@H]6N)[nH]c(=O)c34)CC2)c1 [Example 35, (S)-3-(1-(6-(1-amino-1,3-dihydrospiro[indene-2,4′-piperidin]-1′-yl)-4-oxo-4,5-dihydro-1H-pyrazolo[3,4-d]pyrimidin-3-yl)cyclopropyl)benzonitrile] | ≤ 0.02
